IC50, DC50 and Dmax data for four compounds are collected here from patent publication US20260166159A1, “KRAS G12D DEGRADATION AGENT, AND PREPARATION METHOD AND USE THEREFOR” (LEADINGTAC PHARMACEUTICAL (SHAOXING) CO., LTD., priority 2022, published 2026).

The test system of test [1] is KRAS G12D mutant human pancreatic cancer cell HPAC. As to the kind of experiment: 3D cell proliferation inhibition assay, HPAC. Format: cell-based. The conditions noted are these: 168 h, 7 days, CTG. A digest of the protocol: (§1)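 IC50 values derive from nonlinear fits of log dose against percent inhibition of 7-day 3D proliferation. Readout: CTG luminescence. Plating density: 5×10^2 cells/well in low-adsorption plates. Dosing: 10000–0.026 nM final, 0.2% DMSO.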

For test [2], the target named is T1, KRAS-G12D (Homo sapiens, UniProt P01116, G12D).
T1 construct: endogenous in cells; host or cells: A-427 (ATCC), AGS, AsPc-1, Panc 04.03
T1 sequence (P01116 1-188 isoform P01116-2 G12D): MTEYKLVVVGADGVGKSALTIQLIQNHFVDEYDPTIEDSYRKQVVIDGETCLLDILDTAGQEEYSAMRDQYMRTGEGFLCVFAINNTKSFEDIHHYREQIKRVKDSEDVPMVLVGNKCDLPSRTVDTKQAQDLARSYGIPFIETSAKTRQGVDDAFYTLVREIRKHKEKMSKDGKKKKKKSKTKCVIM
As to the kind of experiment: KRAS-G12D degradation assay (Western Blot), A-427 cells. Format: cell-based. The conditions noted are these: A427 cells, 24 h; for Dmax: A-427. A digest of the protocol: (§2)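 Each KRAS G12D mutant line (A-427, AGS, AsPc-1, Panc 04.03) was seeded at 5×10^5 cells/well and treated 24 h at 37 °C with 0.03–3000 nM compound (final DMSO 0.25%). KRAS in lysates was measured by Western blot, normalized to β-actin and compared with controls, giving DC50 and Dmax from curve fits.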
(In general: A western blot detects proteins with antibodies after separation by electrophoresis.)

The target of test [3] is T1, KRAS-G12D. As to the kind of experiment: KRAS-G12D degradation assay (Western Blot), Panc 04.03 cells. Format: cell-based. The conditions noted are these: 24 h. The protocol:
(§3) The degradation effects of the compounds on KRAS-G12D were investigated on KRAS G12D mutant human lung cancer cell A-427 (ATCC), KRAS G12D mutant human gastric cancer cell AGS, KRAS G12D mutant human metastatic pancreatic cancer cell AsPc-1, and KRAS G12D mutant human pancreatic adenocarcinoma cell Panc 04.03. The specific procedures were as follows: 0.95 mL of cells were seeded into each well of a 24-well cell culture plate to achieve a cell density of 5×10^5 cells/well; and the cell plate was incubated in an incubator at 37° C. with 5% CO2 overnight. Then 50 μL of the compound solution after dilution was added to each of the wells with the corresponding cells, so that the final concentration of the compound was in a range of 0.03-3000 nM. The final concentration of DMSO was 0.25%. After the compounds were added, the cell plate was incubated in the incubator at 37° C. with 5% CO2 for 24 h. The culture medium in the 24-well cell culture plate was removed, and the plate was washed twice with 1×PBS (KeyGEN). 120 μL of RIPA (strong) lysis buffer (Beyotime) supplemented with 1 mM phenylmethylsulfonyl fluoride, a protease inhibitor mixture (Beyotime), and a protease phosphatase inhibitor mixture (Beyotime) was added to lyse adherent A-427 cells at the bottom of the cell culture plate. After the plate was left to stand on ice for 30 min, the protein lysate in each well was transferred to a 1.5 mL centrifuge tube and centrifuged at 15000 g for 20 min at 4° C. The cell lysate supernatants after centrifugation were cryopreserved in a refrigerator at −80° C. for later use.
(§4) After the samples of the cell lysate supernatants that had been prepared were thawed from the refrigerator at −80° C., the total protein concentrations of the cell lysates were determined using a BCA protein quantification kit (Tiangen). The total protein concentrations of the samples were then adjusted to 0.5 μg/μL with PBS and 5×SDS-PAGE protein loading buffer (Beyotime), and the samples were incubated in a water bath at 100° C. for 15 min. The samples were then incubated in an ice bath for 5 min and centrifuged at 14000 g for 1 min at 4° C., and the supernatants were mixed well as loading samples for the Western Blot assay. The samples were loaded into wells of a 10% precast gel (KeyGEN) with a loading volume of 10 μL (total protein: 5 μg), a sufficient Tris-MOPS-SDS running buffer (Adamas) was added, and then electrophoresis was performed at a constant voltage of 120 V for 55 min. After the electrophoresis, the proteins on the gel were transferred to PVDF membranes at a constant current of 250 mA for 55 min. After the membrane transfer, the PVDF membranes were incubated in 1× Quick Block blocking buffer (Beyotime) at room temperature for 30 min. After the blocking, the PVDF membranes were separately incubated at 4° C. overnight with the KRAS antibody (Abcam) diluted in a ratio of 1:1000 and the […] antibody (Abcam) diluted in a ratio of 1:2000 in 5% BSA as the diluent, and then washed with 1×TBST buffer (2.4 g of Tris, 8.8 g of NaCl, 1.5 mL of Tween 20, with pH adjusted to 7.4, with the volume brought to 1 L) 3 times for 10 min/time. The membranes were incubated with a secondary antibody (Abcam) diluted in 5% BSA at room temperature for 2 h, and then washed with 1×TBST buffer 3 times for 10 min/time. Finally, the membranes were incubated with Clarity Western ECL Substrate (BIO-RAD) for 5 min for luminescence and color development, and a ChemiScope 6200 Touch chemiluminescence imaging system (Clinx) was used for color development and protein mapping. Gray value analysis of the protein maps was performed using the chemiluminescence analysis software (Clinx). The gray correction value for each sample was calculated using the formula: gray correction value=(gray value of target protein/gray value of corresponding internal reference)×10^3. Then degradation rates were calculated by comparison with the gray correction value of the control group. […]

For test [4], the target named is T1, KRAS-G12D. As to the kind of experiment: KRAS-G12D degradation assay (Western Blot), AsPc-1 cells. Format: cell-based. Particulars: for DC50: 24 h; for Dmax: ASPC1, 24 h. The essentials:
as §2

The target of test [5] is T2, Human KRAS G12D 6His-tagged (Homo sapiens, UniProt P01116, G12D).
T2 construct: purchased PerkinElmer
T2 sequence (P01116 1-188 isoform P01116-2 G12D): as above
Put plainly: KRAS-G12D/GTP binding assay (HTRF). Particulars: class symbols. The essentials: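 HTRF kit format: 6His-tagged KRAS G12D incubated with compound (final 0.02-5000 nM, 0.5% DMSO), anti-6His Eu cryptate antibody and GTP Red reagent for 1 h at 25° C. 665/620 nm ratio versus control gave inhibition rates; IC50 by nonlinear fit.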
In general terms: Time-resolved FRET reads energy transfer from a long-lived donor to a nearby acceptor.

Test [6] concerns the target T1, KRAS-G12D. Put plainly: KRAS-G12D degradation assay (Western Blot), AGS cells. Format: cell-based. Particulars: 24 h. The protocol:
as §3, §4

Test [7] has as its system KRAS G12D mutant human gastric cancer cell AGS. Put plainly: 3D cell proliferation inhibition assay, AGS. Format: cell-based. Particulars: 168 h, 7 days, CTG. A digest of the protocol: as §1
The test system of test [8] is KRAS G12D mutant human lung cancer cell A427. Put plainly: 3D cell proliferation inhibition assay, A427. Format: cell-based. The conditions noted are these: A-427, 168 h, A427, 7 days, CTG. The essentials:
as §1

Test [9] has as its system KRAS G12D mutant human pancreatic cancer cell Panc 04.03. Put plainly: 3D cell proliferation inhibition assay, Panc 04.03. Format: cell-based. The conditions noted are these: 168 h, Panc 04.03, 7 days, CTG, numeric values. An excerpt: The inhibitory effects of the compounds on 3D cell proliferation were investigated on KRAS G12D mutant human lung cancer cell A427, KRAS G12D mutant human gastric cancer cell AGS, KRAS G12D mutant human metastatic pancreatic cancer cell AsPc-1, KRAS G12D mutant human pancreatic cancer cell Panc 04.03, KRAS G12D mutant human pancreatic cancer cell HPAC, KRAS G12V mutant human lung squamous cell carcinoma cell SW900, and KRAS WT human gastric cancer cell MKN1. The specific procedures were as follows:
10 μL of each compound solution diluted in a gradient was added to corresponding wells of a 96-well low-adsorption microplate (PerkinElmer), so that the final concentrations of the test compounds in the reaction system were in a range of 10000-0.026 nM. The final concentration of DMSO was 0.2%. Then 90 µL of cells were correspondingly seeded into each well to achieve a cell density of 5×10^2 cells/well (the cell density of SW900 was 5×10^1 cells/well, and the cell density of MKN1 was 1×10^3 cells/well). In addition to test wells for the test compounds, both a DMSO control well and a medium control well were set, with the DMSO control well containing DMSO and cells and the medium well containing only a medium. After the sample loading, the 96-well low-adsorption microplate was incubated in an incubator at 37° C. with 5% carbon dioxide for 7 days. After 7 days, the microplate was taken out, and 100 μL of CTG reagent (Promega) was added to each well. The plate was incubated at room temperature for 60 min and read on a microplate reader EnVision by the chemiluminescence program. The inhibition rates of the compounds at each concentration were calculated using the formula for the percentage inhibition of cell proliferation: inhibition rate %=(mean value of DMSO control group−single concentration reading value of compound)/(mean value of DMSO control group−mean value of medium control group)×100. Then non-linear curve fittings for logarithmic concentration-inhibition rate were performed by GraphPad Prism 8, and the IC50 values of the compounds were obtained (Table 5).

Test [10] has as its system KRAS G12D mutant human metastatic pancreatic cancer cell AsPc-1. Put plainly: 3D cell proliferation inhibition assay, AsPc-1. Format: cell-based. Particulars: ASPC1, 168 h, AsPc-1, 7 days, CTG, numeric values. The essentials: as §1

Where only a bound is given, the exact number is not on record here.

What is called IC50 is the concentration at which inhibition is half-maximal. As a reminder, the DC50 is the concentration giving 50% degradation. Read a high DC50 as degradation only at high concentration. One may read the Dmax as the greatest extent of degradation seen. `C#Cc1cccc2cc(O)cc(-c3ncc4c(N5CC6CCC(C5)N6)nc(OCC5(CN6CCN(CC7CCC8(CC7)CCN(C(=O)c7ccc(C)c(N9CCC(=O)NC9=O)c7)CC8)CC6)CC5)nc4c3F)c12` [Example 55, 1-(5-(9-((4-((1-(((4-(3,8-diazabicyclo[3.2.1]octan-3-yl)-7-(8-ethynyl-3-hydroxynaphthalen-1-yl)-8-fluoropyrido[4,3-d]pyrimidin-2-yl)oxy)methyl)cyclopropyl)methyl)piperazin-1-yl)methyl)-3-azaspiro[5.5]undecane-3-carbonyl)-2-methylphenyl)dihydropyrimidine-2,4(1H,3H)-dione]: the IC50 in [1] was 4.28 nM; in test [5], ≤ 50 nM; in [7] (class symbols) it was ≤ 50 nM; in test [8] (class symbols), ≤ 50 nM. The DC50 in test [2] (class symbols) was ≤ 50 nM; in test [3], 4.08 nM; in [4], 11.1 nM; in test [6] it was 1.91 nM. Also, the Dmax in test [2] (class symbols) is 80 to 100%; in test [3] it was 98.6%; in test [4], 95.2%; in test [6], 99.2%.

As for `Cc1ccc(C(=O)N2CCC3(CCC(CN4CCN(CC5(COc6nc(N7CC8CCC(C7)N8)c7cnc(-c8cc(O)cc(Cl)c8C8CC8)c(F)c7n6)CC5)CC4)CC3)CC2)cc1N1CCC(=O)NC1=O` [Example 81, 1-(5-(9-((4-((1-(((4-(3,8-diazabicyclo[3.2.1]octan-3-yl)-7-(3-chloro-2-cyclopropyl-5-hydroxyphenyl)-8-fluoropyrido[4,3-d]pyrimidin-2-yl)oxy)methyl)cyclopropyl)methyl)piperazin-1-yl)methyl)-3-azaspiro[5.5]undecane-3-carbonyl)-2-methylphenyl)dihydropyrimidine-2,4(1H,3H)-dione], the IC50 in [1] amounted to 4.37 nM; in test [9], 27.8 nM; in test [10] it was 13 nM; in [7] (numeric values) it was 5.52 nM; in test [8] (numeric values), 67.1 nM. In addition, the DC50 came out at 16.8 nM in [2] (numeric values), 17.8 nM in test [4] and 2.99 nM in test [6]. For the same compound, the Dmax in [2] (numeric values) was found to be 76.5%; in [4] it was 98.2%; in test [6], 80.3%.

On to `C#Cc1c(F)ccc2cc(O)cc(-c3ncc4c(N5CC6CCC(C5)N6)nc(OC[C@H](C)CN5CCN(CC6CCC7(CC6)CCN(C(=O)c6ccc(OC)c(N8CCC(=O)NC8=O)c6)CC7)CC5)nc4c3F)c12` [Example 90], for which the IC50 in test [1] is 2.44 nM; in test [9], 8.82 nM; in test [10], 1.19 nM; in test [7] (numeric values), 0.65 nM; in [8] (numeric values), 28.3 nM. Besides, the DC50 in test [2] (numeric values) came out at 0.86 nM; in [4], 1.87 nM; in test [6], 10.6 nM. Moreover, the Dmax was 95.6% in [2] (numeric values), 100% in test [4] and 98.9% in [6].

For the compound `[2H]C([2H])([2H])c1ccc(C(=O)N2CCC3(CCC(CN4CCN(C[C@@H](C)COc5nc(N6CC7CCC(C6)N7)c6cnc(-c7cc(O)cc8ccc(F)c(C#C)c78)c(F)c6n5)CC4)CC3)CC2)cc1N1CCC(=O)NC1=O` [Example 109, 1-(5-(9-((4-((R)-3-((4-(3,8-diazabicyclo[3.2.1]octan-3-yl)-7-(8-ethynyl-7-fluoro-3-hydroxynaphthalen-1-yl)-8-fluoropyrido[4,3-d]pyrimidin-2-yl)oxy)-2-methylpropyl)piperazin-1-yl)methyl)-3-azaspiro[5.5]undecane-3-carbonyl)-2-(methyl-d3)phenyl)dihydropyrimidine-2,4(1H,3H)-dione], the IC50 in test [1] worked out at 1.62 nM; in test [9] it was 6.73 nM; in test [10], 1.42 nM; in test [7] (numeric values), 3.98 nM. In addition, the DC50 in [4] is 0.64 nM; in test [6], 4.8 nM. Moreover, the Dmax is 98.8% in test [4] and 94.5% in test [6].
